# Assay results as given in patent US20240360114A1 (SIRONAX LTD., priority 2021, published 2024).
# Test system: HT-1080 cells
# Assay: HT-1080 cell viability assay (ferroptosis induced by RSL3, Cell Titer-Glo)
# Type: cell-based
# Conditions: Homo sapiens, HT-1080, 20 h, ferroptosis inducer RSL3, 20 hours, ferroptosis inhibitory activity, Table 2
# Procedure, shortened: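 EC50 fitted by sigmoidal dose-response regression on luminescent viability data normalized to untreated cells. Compounds ran as a 10-point, 3-fold series from 1.1 μM alongside RSL3 for 20 hours, after overnight seeding.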
row,SMILES,EC50
1,"Cc1nc(N2CCC(C)CC2)ccc1NC1CCC(CN)CC1 (stereo not drawn) [Compound 26, N-(4-(aminomethyl)cyclohexyl)-2-methyl-6-(4-methylpiperidin-1-yl)pyridin-3-amine]",0.0001 to 0.1 µM
2,"NC1CCC(Nc2ccc(Cl)cc2)CC1 (stereo not drawn) [Compound 161, N1-(4-chlorophenyl)cyclohexane-1,4-diamine]",1 to 10 µM
3,"NC1CC2(C1)CC(Nc1ccc(C3CCN(CC(F)(F)F)CC3)cc1)C2 (stereo not drawn) [Compound 560, N2-(4-(1-(2,2,2-trifluoroethyl)piperidin-4-yl)phenyl)spiro[3.3]heptane-2,6-diamine]",0.0001 to 0.1 µM
4,"CC(C)(C)c1ccc(NC2CCC(N)CC2)cc1F (stereo not drawn) [Compound 242A, N1-(4-(tert-butyl)-3-fluorophenyl)cyclohexane-1,4-diamine 2,2,2-trifluoroacetate]",0.0001 to 0.1 µM
5,"CCCc1ccc(NC2CCC(N)CC2)cc1 (single isomer, unassigned) [Compound 135A, N1-(4-propylphenyl)cyclohexane-1,4-diamine]",0.1 to 1 µM
6,"C[C@@H](O)[C@H](N)CNC1CCC(Nc2ccc(C(C)(C)C)cc2)CC1 (stereo partly drawn) [Compound 341, (2R, 3R)-3-amino-4-((4-((4-(tert-butyl)phenyl)amino)cyclohexyl)amino) butan-2-ol]",0.0001 to 0.1 µM
7,"CC[C@@H]1CN(c2ccc(NC3CC4(CC(N)C4)C3)c(C)n2)C[C@H](C)O1 (stereo partly drawn) [Compound 546, N2-(6-((2R,6S)-2-ethyl-6-methylmorpholino)-2-methylpyridin-3-yl)spiro[3.3]heptane-2,6-diamine]",0.0001 to 0.1 µM
8,"CC[C@@H]1CN(c2ccc(NC[C@H]3CC[C@H](N)CC3)c(C)n2)C[C@H](CC)O1 [Compound 500, N-(((1r,4R)-4-aminocyclohexyl)methyl)-6-((2R,6S)-2,6-diethylmorpholino)-2-methylpyridin-3-amine]",0.0001 to 0.1 µM
9,"CCN1CCC(Nc2ccc(C3CCCCC3)cc2)CC1 [Compound 72, N-(4-cyclohexylphenyl)-1-ethylpiperidin-4-amine]",0.0001 to 0.1 µM
10,"Cc1nc(N2CC(C)OC(C)C2)ccc1NC1CC2CC1CC2N (stereo not drawn) [Compound 504, N2-(6-(2,6-dimethylmorpholino)-2-methylpyridin-3-yl)bicyclo[2.2.1]heptane-2,5-diamine]",0.0001 to 0.1 µM
11,"NC1CCC(Nc2cccc3c2CCC3)CC1 (single isomer, unassigned) [Compound 191A, N1-(2,3-dihydro-1H-inden-4-yl)cyclohexane-1,4-diamine]",1 to 10 µM
12,"CC1(C)CCC(c2ccc(NCCN)cc2)CC1 [Compound 176, N1-(4-(4,4-dimethylcyclohexyl)phenyl)ethane-1,2-diamine]",0.1 to 1 µM
13,"CC1(CN)CCC(Nc2ccc(C(C)(C)C)cc2)CC1 (stereo not drawn) [Compound 339, N-(4-(aminomethyl)-4-methylcyclohexyl)-4-(tert-butyl)aniline]",0.0001 to 0.1 µM
14,"CC1(C)CCC(c2ccc(NCCCN3CCCC3)cc2)CC1 [Compound 171, 4-(4,4-dimethylcyclohexyl)-N-(3-(pyrrolidin-1-yl)propyl)aniline]",0.0001 to 0.1 µM
15,"CC1(C)CCN(c2ncc(NC3C4CC5CC3CC(C(N)=O)(C5)C4)cn2)CC1 (stereo not drawn) [Compound 410, 4-((2-(4,4-dimethylpiperidin-1-yl)pyrimidin-5-yl)amino)adamantane-1-carboxamide]",0.0001 to 0.1 µM
16,"NC1CCC(Nc2ccc(N3CCC(C(F)(F)F)CC3)cc2F)CC1 (stereo not drawn) [Compound 71, N1-(2-fluoro-4-(4-(trifluoromethyl)piperidin-1-yl)phenyl)cyclohexane-1,4-diamine]",0.0001 to 0.1 µM
17,"Cc1cc(NC2CCC(N)CC2)ccc1N1CCC(C(F)(F)F)CC1 (stereo not drawn) [Compound 66, N1-(3-methyl-4-(4-(trifluoromethyl)piperidin-1-yl)phenyl)cyclohexane-1,4-diamine]",0.0001 to 0.1 µM
18,"CC1(C)Cc2ccc(NC3CCC(N)CC3)cc2C1 (stereo not drawn) [Compound 324, N-(2,2-dimethyl-2,3-dihydro-1H-inden-5-yl)cyclohexane-1,4-diamine]",0.0001 to 0.1 µM

row,SMILES,EC50
1,"CC(C)(C)c1ccc(NC2CCC(NCCCCO)CC2)cc1 (stereo not drawn) [Compound 321, 4-((4-((4-(tert-butyl)phenyl)amino)cyclohexyl)amino) butan-1-ol]",0.1 to 1 µM
2,"CC(C)C1CCN(c2cnc(NC3CCC(N)CC3)nc2)CC1 (stereo not drawn) [Compound 400, N1-(5-(4-isopropylpiperidin-1-yl)pyrimidin-2-yl)cyclohexane-1,4-diamine]",1 to 10 µM
3,"NC1CCC(Nc2ccc(F)c(F)c2)CC1 (stereo not drawn) [Compound 160, N1-(3,4-difluorophenyl)cyclohexane-1,4-diamine]",1 to 10 µM
4,"NC1CCC(Nc2ccc(Oc3ccccc3)cc2)CC1 (stereo not drawn) [Compound 239, N1-(4-phenoxyphenyl)cyclohexane-1,4-diamine]",0.0001 to 0.1 µM
5,"Cc1cc(N2CCC(C(F)(F)F)CC2)c(C)cc1NC1CCC(N)CC1 (stereo not drawn) [Compound 59, N1-(2,5-dimethyl-4-(4-(trifluoromethyl)piperidin-1-yl)phenyl)cyclohexane-1,4-diamine]",0.0001 to 0.1 µM
6,"Cc1nc(N2CCC(C(F)(F)F)CC2)ccc1NC[C@H]1CC[C@H](NC(=O)C2CNC(=O)C2)CC1 (stereo partly drawn) [Compound 378, N-((1r,4r)-4-(((2-methyl-6-(4-(trifluoromethyl)piperidin-1-yl)pyridin-3-yl)amino)methyl)cyclohexyl)-5-oxopyrrolidine-3-carboxamide]",0.0001 to 0.1 µM
7,"CC1(N)CCC(Nc2ccc(C(C)(C)C)cc2)CC1 (single isomer, unassigned) [Compound 231A, N1-(4-(tert-butyl)phenyl)-4-methylcyclohexane-1,4-diamine]",0.0001 to 0.1 µM
8,"CCN1CCC(Nc2ccc(N3CCC(C(F)(F)F)CC3)cc2)CC1 [Compound 5, 1-ethyl-N-(4-(4-(trifluoromethyl)piperidin-1-yl)phenyl)piperidin-4-amine]",0.0001 to 0.1 µM
9,"CC1CN(c2ccc3cc(NC4CC5(CC(N)C5)C4)ncc3c2)CC(C)O1 (stereo not drawn) [Compound 570, N2-(7-(2,6-dimethylmorpholino)isoquinolin-3-yl)spiro[3.3]heptane-2,6-diamine]",0.0001 to 0.1 µM
10,"CC1(C)CCC(c2ccc(NC3CCC(CN)C3)cc2)CC1 (stereo not drawn) [Compound 83, N-(3-(aminomethyl)cyclopentyl)-4-(4,4-dimethylcyclohexyl)aniline]",0.0001 to 0.1 µM
11,"Cc1nc(N2CCOCC2)ccc1NC1C2CC3CC1CC(N)(C3)C2 (stereo not drawn) [Compound 517, N4-(2-methyl-6-morpholinopyridin-3-yl)adamantane-1,4-diamine]",0.1 to 1 µM
12,"CC(C)C1CCN(c2ncc(NC3CCC(N)CC3)cn2)CC1 (stereo not drawn) [Compound 34A, N1-(2-(4-isopropylpiperidin-1-yl)pyrimidin-5-yl)cyclohexane-1,4-diamine]",0.0001 to 0.1 µM
13,"CC(C)(C)c1ccc(NCCOCCN)cc1 [Compound 224, N-(2-(2-aminoethoxy)ethyl)-4-(tert-butyl)aniline]",0.1 to 1 µM
14,"Cc1cc(NC2CC3(CC(N)C3)C2)cnc1N1C[C@H](C)O[C@@H](C)C1 (stereo in doubt) [Compound 480, N2-(6-((25,6S)-2,6-dimethylmorpholino)-5-methylpyridin-3-yl)spiro[3.3]heptane-2,6-diamine]",0.1 to 1 µM
15,"CCC(C)(C)c1ccc(NC[C@H]2CC[C@H](N)CC2)cc1 [Compound 342, N-(((1r,4r)-4-aminocyclohexyl)methyl)-4-(tert-pentyl)aniline]",0.0001 to 0.1 µM
16,"CC1(C)CCC(c2ccc(NC3CCC(NS(N)(=O)=O)CC3)cc2)CC1 (stereo not drawn) [Compound 249, N-(4-{[4-(4,4-dimethylcyclohexyl)phenyl]amino}cyclohexyl)aminosulfonamide]",0.0001 to 0.1 µM
17,"CN(C)C1CCC(NC(=O)C2CCC(Nc3ccc(C4CCC(C)(C)CC4)cc3)CC2)CC1 (single isomer, unassigned) [Compound 76A, (4-(dimethylamino)cyclohexyl)-4-((4-(4,4-dimethylcyclohexyl)phenyl)amino)cyclohexane-1-carboxamide]",0.0001 to 0.1 µM

# Same assay, conditions: Homo sapiens, HT-1080, 20 h, ferroptosis inducer RSL3, 20 hours, ferroptosis inhibitory activity, Table 3
row,SMILES,EC50
1,CN(CC(F)(F)F)c1ccc2cc(NC3CC(N)C3)ccc2c1 (stereo not drawn) [Compound 654],0.0001 to 0.1 µM
2,[2H]C1(Nc2ccc(N3C[C@@H](C)O[C@@H](C)C3)nc2C)CC2(CC(N)C2)C1 (stereo partly drawn) [Compound 645],0.0001 to 0.1 µM
3,Cc1nc(N2C[C@@H](C)O[C@@H](C)C2)ccc1NC1C2CC3CC1CC(CNCCO)(C3)C2 (stereo partly drawn) [Compound 585],0.0001 to 0.1 µM
4,CC(=O)N1C(C)CN(c2ccc(NC3CC4(CC(N)C4)C3)c(C)n2)CC1C (stereo not drawn) [Compound 600],0.1 to 1 µM
5,"Cc1cc(NC2CC3(CC(N)C3)C2)ccc1N1CCN(CC(F)(F)F)CC1 (stereo not drawn) [Compound 574, N^2-(3-methyl-4-(4-(2,2,2-trifluoroethyl)piperazin-1-yl)phenyl)spiro/3.3/heptane-2.6-diamine]",0.0001 to 0.1 µM
6,"Cc1nc(N2CCC(C3CC(C)OC(C)C3)CC2)ccc1NC1CC2(CC(N)C2)C1 (stereo not drawn) [Compound 594, N^2-(6-(4-(2,6-dimethyltetrahydro-2H-pyran-4-yl)piperidin-1-yl)-2-methylpyridin-3-yl)spiro[3.3]heptane-2,6-diamine]",0.0001 to 0.1 µM

# Same assay, conditions: Homo sapiens, ferroptosis inducer RSL3, 20 hours, ferroptosis inhibitory activity, Table 2
row,SMILES,EC50
1,"CCC(C)(C)c1ccc(NC2CCC(N)CC2)cc1 (single isomer, unassigned) [Compound 232A, N1-(4-(tert-pentyl)phenyl)cyclohexane-1,4-diamine]",0.0001 to 0.1 µM
2,"NC1CCC(Nc2ccc3cc(N4CCC(C(F)(F)F)CC4)ccc3c2)CC1 (stereo not drawn) [Compound 561, N1-(6-(4-(trifluoromethyl)piperidin-1-yl)naphthalen-2-yl)cyclohexane-1,4-diamine]",0.0001 to 0.1 µM

# Same assay, conditions: ferroptosis inducer RSL3, 20 hours, ferroptosis inhibitory activity, Table 2
row,SMILES,EC50
1,"CCC(C)(C)c1ccc(NC2CCC(NCCO)CC2)cc1 (single isomer, unassigned) [Compound 295A, 2-((4-((4-(tert-pentyl)phenyl)amino)cyclohexyl)amino)ethan-1-ol]",0.1 to 1 µM
2,"CCC(C)c1ccc(NC2CCC(N)CC2)cc1 (single isomer, unassigned) [Compound 289A, 1-N-(4-(sec-butyl)phenyl)cyclohexane-1,4-diamine]",0.0001 to 0.1 µM
